System: renal cell carcinoma tissue, Patient Sample GS-640 (kidney tissue)
Assay: tumor tissue fragments in three-dimensional gel matrix: cell migration/invasion away from the fragment under chemotherapy
Assay type: cell-based, human
Conditions: 5 days treatment; for number of invading cells: compared with control sample at Day 5; for response of tumor sample to the drug (behavior of cells growing and invading away from the solid tumor fragment): patient renal cell carcinoma fragments in gel matrix, 37 degree Celsius, 5% CO2, compared with untreated control
Source text: FIGS. 1-8 are photographic and photomicrographic images which show, by way of example, use of the means and methods of the present invention with respect to a tissue sample removed from a patient. With respect to FIGS. 1-8, Patient Sample GS-640, comprising kidney tissue, was removed from the patient by a surgeon during surgery.
Tissue analysis and screening in accordance with the invention were requested by the surgeon, and proper consent was obtained from the patient prior to surgical removal of a sample quantity of tissue from the RHS Kidney. The patient was diagnosed with renal cell carcinoma. A tissue sample of approximately 1 gram in quantity was removed from the patient during surgery, and was placed into a 25 ml sample jar, and immersed in sterile saline. The tumor tissue was kept at 4 degrees centigrade until processed for the screening of therapeutic compounds in accordance with the means and methods of the invention. All procedures were performed under sterile conditions in a bio-safety laminar flow hood.
FIG. 1 is a photographic image showing the mechanical division of the sample into portions to be tested. The sample has been prepared by dissecting away any non viable tissue and blood prior to mincing into 1-2 mm pieces using sterile disposable scalpels.
FIG. 2 is a photographic image showing tumor sample portions which have been placed into each well of a 48 well plate, and been submersed in a gel matrix mixture according to the invention. After insertion of the portions, the mixture was allowed to form into a gel at room temperature for approximately 30 minutes. Once the gel formed around the fully immersed tumor fragments, nutrient rich media was added as a liquid overlay that permeated the entire gel and tumor fragment.
Each different chemotherapy and or dose of chemotherapy was added to a set of 6 wells out of the 48-well plate. A total of 7 different chemotherapies were assessed in this plate. One set of six wells were not treated with drug and thus acted as ‘control conditions’ for tumor fragment growth and invasion. Each of the eight vertical lanes containing six separate wells was marked with a symbol for each chemotherapy/dose used and noted correspondingly on data collection sheets. […] The plates were then placed in a conventional 37 degree Celsius incubator at 5% CO2.
This image is thus representative of all wells at Day 0 with or without chemotherapeutics. Images were made with a 400× magnification phase contrast micrograph using ZEISS camera specs.
FIG. 4 is a photomicrographic image which showing a patient control sample (no treatment) after 3 days incubation @37° C. and 5% CO2. Noteworthy is the migration of cells away from the solid tumor mass in a halo around the tumour fragment.
Noteworthy is the halo of cells and increased cell density as compared with the results shown at Day 3 of the test. The lines on the images have been drawn to show the distance measurements within which approximately 95% of the migrating cells have migrated away from the margins of the tissue sample.

Structure (SMILES) | number of invading cells | response of tumor sample to the drug (behavior of cells growing and invading away from the solid tumor fragment) | migratory distance of cells
N.N.[Cl][Pt][Cl] [Cisplatin] | identical in appearance and cell numbers to the control sample | failed chemotherapy | –
CC(=O)O[C@@]12CO[C@@H]1C[C@H](O)[C@@]1(C)C(=O)[C@H](O)C3=C(C)[C@@H](OC(=O)[C@H](O)[C@@H](NC(=O)OC(C)(C)C)c4ccccc4)C[C@@](O)([C@@H](OC(=O)c4ccccc4)[C@H]21)C3(C)C [Docetaxol, Docetaxel] | fewer number of invading cells than the control | moderate response | longer migratory distance than treatment with Taxol
CC(=O)O[C@H]1C(=O)[C@@]2(C)[C@H]([C@H](OC(=O)c3ccccc3)[C@]3(O)C[C@H](OC(=O)[C@H](O)[C@@H](NC(=O)c4ccccc4)c4ccccc4)C(C)=C1C3(C)C)[C@]1(OC(C)=O)CO[C@@H]1C[C@@H]2O [Taxol, Paclitaxel] | – | a drop in both the distance and the number of cells that have grown and invaded away from the solid tumor fragment | –

Source: patent US7977041B2, “Methods and kits for testing the efficacy of therapeutic compounds and other therapies in a three-dimensional matrix with respect to tumorous cells and tissue” (priority 2006, dated 2011)
